Columns and labels:
Type in all cases: in vivo
[1] = system: Plutella xylostella (Diamond Back Moth); experiment: Example B4: Plutella xylostella (diamond back moth), artificial diet, eggs, 24-well; settings: 192 h, application rate of 200 ppm, 8 days after infestation, eggs, read-out: control in at least one of the two categories (mortality or growth inhibition)
Method: 24-well microtiter plates with artificial diet were treated with aqueous test solutions prepared from 10′000 ppm DMSO stock solutions by pipetting. After drying, Plutella eggs were pipetted through a plastic stencil onto a gel blotting paper and the plate was closed with it. The samples were assessed for mortality and growth inhibition in comparison to untreated samples 8 days after infestation.

[2] = system: Diabrotica Balteata (Corn Root Worm); experiment: Example B1: Diabrotica balteata (corn root worm), maize sprouts sprayed, L2 larvae; settings: 96 h, application rate of 200 ppm, 4 days after infestation, L2 larvae, read-out: control in at least one of the two categories (mortality or growth inhibition)
Summary of the method: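 Spray test: maize sprouts on agar, aqueous dilutions of 10′000 ppm DMSO stock; after drying, 6–10 L2 larvae/well. Read-out at 4 d post-infestation: mortality and growth inhibition vs untreated.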

[3] = system: Spodoptera littoralis (Egyptian Cotton Leaf Worm); experiment: Example B7: Spodoptera littoralis (Egyptian cotton leaf worm), cotton leaf discs sprayed, L1 larvae; settings: foliar, 72 h, application rate of 200 ppm, 3 days after infestation, L1 larvae, read-out: control in at least one of the three categories (mortality, anti-feedant effect, or growth inhibition)
Summary of the method: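 Spray application onto agar-supported cotton leaf discs used aqueous solutions derived from 10′000 ppm DMSO stocks. Once dry, discs were infested with five L1 larvae and evaluated after 3 days for mortality, anti-feeding and growth inhibition relative to untreated controls.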

[4] = system: Chilo suppressalis (Striped Rice Stemborer); experiment: Example B3: Chilo suppressalis (striped rice stemborer), artificial diet, L2 larvae; settings: 144 h, application rate of 200 ppm, 6 days after infestation, L2 larvae, read-out: control in at least one of the three categories (mortality, anti-feedant effect, or growth inhibition)
Summary of the method: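 Artificial diet treated with aqueous dilutions of DMSO stocks (10'000 ppm stock), dried, then infested with 6-8 L2 larvae per well. Mortality, anti-feeding and growth inhibition scored against untreated samples 6 days after infestation. Control counted when any category exceeds untreated.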

CC(Nc1ncnc2c(C(F)(F)F)cc(C(F)(F)F)cc12)c1nccnc1-c1ccc(C#N)cn1 (centres unmarked) [P.115, 6-[3-[1-[[6,8-bis(trifluoromethyl)quina-zolin-4-yl]amino]ethyl]pyrazin-2-yl]pyridine-3-carbonitrile]
≥ 80%: percent control (mortality or growth inhibition) at 200 ppm [1] | percent control (mortality or growth inhibition) at 200 ppm [2] | percent control (mortality, anti-feedant effect or growth inhibition) at 200 ppm [3] | percent control (mortality, anti-feedant effect or growth inhibition) at 200 ppm [4]

CC(c1nccnc1-c1ccc(C#N)cn1)N(C)c1ncnc2c(C(F)(F)F)cc(C(F)(F)F)cc12 (centres unmarked) [P.116, 6-[3-[1-[[6,8-bis(trifluoromethyl)quina-zolin-4-yl]-methyl-amino]ethyl]pyrazin-2-yl]pyridine-3-carbonitrile]
≥ 80%: percent control (mortality or growth inhibition) at 200 ppm [1] | percent control (mortality or growth inhibition) at 200 ppm [2] | percent control (mortality, anti-feedant effect or growth inhibition) at 200 ppm [3] | percent control (mortality, anti-feedant effect or growth inhibition) at 200 ppm [4]

CC(Nc1ncnc2c(Br)cc(C(F)(F)F)cc12)c1nccnc1-c1ccc(C#N)cn1 (centres unmarked) [P.117, 6-[3-[1-[[8-bromo-6-(trifluoromethyl)quinazolin-4-yl]amino]ethyl]pyrazin-2-yl]pyridine-3-carbonitrile]
≥ 80%: percent control (mortality or growth inhibition) at 200 ppm [1] | percent control (mortality or growth inhibition) at 200 ppm [2] | percent control (mortality, anti-feedant effect or growth inhibition) at 200 ppm [3] | percent control (mortality, anti-feedant effect or growth inhibition) at 200 ppm [4]

CC(Nc1ncnc2c(C(F)(F)F)cc(Cl)cc12)c1nccnc1-c1ccc(C#N)cn1 (centres unmarked) [P.118, 6-[3-[1-[[6-chloro-8-(trifluoromethyl)quinazolin-4-yl]amino]ethyl]pyrazin-2-yl]pyridine-3-carbonitrile]
≥ 80%: percent control (mortality or growth inhibition) at 200 ppm [1] | percent control (mortality or growth inhibition) at 200 ppm [2] | percent control (mortality, anti-feedant effect or growth inhibition) at 200 ppm [3] | percent control (mortality, anti-feedant effect or growth inhibition) at 200 ppm [4]

CC(Nc1ncnc2c(C(F)(F)F)cc(Br)cc12)c1nccnc1-c1ccc(C#N)cn1 (centres unmarked) [P.119, 6-[3-[1-[[6-bromo-8-(trifluoromethyl)quinazolin-4-yl]amino]ethyl]pyrazin-2-yl]pyridine-3-carbonitrile]
≥ 80%: percent control (mortality or growth inhibition) at 200 ppm [1] | percent control (mortality or growth inhibition) at 200 ppm [2] | percent control (mortality, anti-feedant effect or growth inhibition) at 200 ppm [3] | percent control (mortality, anti-feedant effect or growth inhibition) at 200 ppm [4]

CC(Nc1ncnc2c(C(F)(F)F)cc(Cl)cc12)c1nccnc1-c1ccc(OC(F)F)cn1 (centres unmarked) [P.120, 6-chloro-N-[1-[3-[5-(difluoromethoxy)-2-pyridyl]pyrazin-2-yl]ethyl]-8-(trifluoromethyl)quinazolin-4-amine]
≥ 80%: percent control (mortality or growth inhibition) at 200 ppm [1] | percent control (mortality or growth inhibition) at 200 ppm [2] | percent control (mortality, anti-feedant effect or growth inhibition) at 200 ppm [3] | percent control (mortality, anti-feedant effect or growth inhibition) at 200 ppm [4]

CC(c1nccnc1-c1ccc(C#N)cn1)N(C)c1ncnc2c(Cl)cc(C(F)(F)F)cc12 (centres unmarked) [P.122]
≥ 80%: percent control (mortality or growth inhibition) at 200 ppm [1] | percent control (mortality or growth inhibition) at 200 ppm [2] | percent control (mortality, anti-feedant effect or growth inhibition) at 200 ppm [3] | percent control (mortality, anti-feedant effect or growth inhibition) at 200 ppm [4]

CC(c1nccnc1-c1ccc(OC(F)F)cn1)N(C)c1ncnc2c(C(F)(F)F)cc(Cl)cc12 (centres unmarked) [P.123, 6-chloro-N-[1-[3-[5-(difluoromethoxy)-2-pyridyl]pyrazin-2-yl]ethyl]-N-methyl-8-(trifluoromethyl)quinazolin-4-amine]
≥ 80%: percent control (mortality or growth inhibition) at 200 ppm [1] | percent control (mortality or growth inhibition) at 200 ppm [2] | percent control (mortality, anti-feedant effect or growth inhibition) at 200 ppm [3] | percent control (mortality, anti-feedant effect or growth inhibition) at 200 ppm [4]

CC(c1nccnc1-c1ccc(C#N)cn1)N(C)c1ncnc2c(Br)cc(C(F)(F)F)cc12 (centres unmarked) [P.124, 6-[3-[1-[[8-bromo-6-(trifluoromethyl)quinazolin-4-yl]-methyl-amino]ethyl]pyrazin-2-yl]pyridine-3-carbonitrile]
≥ 80%: percent control (mortality or growth inhibition) at 200 ppm [1] | percent control (mortality or growth inhibition) at 200 ppm [2] | percent control (mortality, anti-feedant effect or growth inhibition) at 200 ppm [3] | percent control (mortality, anti-feedant effect or growth inhibition) at 200 ppm [4]

CC(c1nccnc1-c1ccc(C#N)cn1)N(CC1CC1)c1ncnc2c(C(F)(F)F)cc(C(F)(F)F)cc12 (centres unmarked) [P.126, 6-[3-[1-[[6,8-bis(trifluoromethyl)quina-zolin-4-yl]-(cyclopropylmethyl)amino]ethyl]pyrazin-2-yl]pyridine-3-carbonitrile]
≥ 80%: percent control (mortality or growth inhibition) at 200 ppm [1] | percent control (mortality or growth inhibition) at 200 ppm [2] | percent control (mortality, anti-feedant effect or growth inhibition) at 200 ppm [3] | percent control (mortality, anti-feedant effect or growth inhibition) at 200 ppm [4]

CC(c1nccnc1-n1nccn1)N(C)c1ncnc2c(C(F)(F)F)cc(Cl)cc12 (centres unmarked) [P.129, 6-chloro-N-methyl-N-[1-[3-(triazol-2-yl)pyrazin-2-yl]ethyl]-8-(trifluoromethyl)quinazolin-4-amine]
≥ 80%: percent control (mortality or growth inhibition) at 200 ppm [1] | percent control (mortality or growth inhibition) at 200 ppm [2] | percent control (mortality, anti-feedant effect or growth inhibition) at 200 ppm [3] | percent control (mortality, anti-feedant effect or growth inhibition) at 200 ppm [4]

CC(c1nccnc1-c1ncccn1)N(CC1CC1)c1ncnc2c(C(F)(F)F)cc(Cl)cc12 (centres unmarked) [P.131, 6-chloro-N-(cyclopropylmethyl)-N-[1-(3-pyrimidin-2-ylpyrazin-2-yl)ethyl]-8-(trifluoromethyl)quinazolin-4-amine]
≥ 80%: percent control (mortality or growth inhibition) at 200 ppm [1] | percent control (mortality or growth inhibition) at 200 ppm [2] | percent control (mortality, anti-feedant effect or growth inhibition) at 200 ppm [3] | percent control (mortality, anti-feedant effect or growth inhibition) at 200 ppm [4]

CC(Nc1ncnc2c(Cl)cc(Br)cc12)c1ncnn1-c1ncccn1 (centres unmarked) [P.159, 6-bromo-8-chloro-N-[1-(2-pyrimidin-2-yl-1,2,4-triazol-3-yl)ethyl]quinazolin-4-amine]
≥ 80%: percent control (mortality or growth inhibition) at 200 ppm [1] | percent control (mortality or growth inhibition) at 200 ppm [2] | percent control (mortality, anti-feedant effect or growth inhibition) at 200 ppm [3] | percent control (mortality, anti-feedant effect or growth inhibition) at 200 ppm [4]

C[C@H](Nc1ncnc2c(I)cc(C(F)(F)F)cc12)c1nccnc1-c1ccc(C#N)cn1 [P.161, 6-[3-[(1S)-1-[[8-iodo-6-(trifluoromethyl)quinazolin-4-yl]amino]ethyl]pyrazin-2-yl]pyridine-3-carbonitrile]
≥ 80%: percent control (mortality or growth inhibition) at 200 ppm [1] | percent control (mortality or growth inhibition) at 200 ppm [2] | percent control (mortality, anti-feedant effect or growth inhibition) at 200 ppm [3] | percent control (mortality, anti-feedant effect or growth inhibition) at 200 ppm [4]

Source: patent US20230002359A1, “PESTICIDALLY ACTIVE FUSED BICYCLIC HETEROAROMATIC COMPOUNDS” (priority 2019, published 2023)
